Data from ChEMBL document CHEMBL4613212, “Insights of synthetic analogues of anti-leprosy agents” (Bioorg Med Chem, 2019).
≈ marks a conversion by molar mass, not a printed value.

Columns and labels:
[1] = system: Mycobacterium leprae; assay: Anti-leprotic activity against Mycobacterium leprae infected in BALB/c mouse assessed as time delay in bacterial multiplication in footpad at 0.003 g/100g of diet administered via feed starting 60 or 75 day post infection up to 90 days by Shepard's kinetic method; assay type: functional
[2] = system: Mycolicibacterium smegmatis; assay: Antimycobacterial activity against DDS resistant Mycobacterium smegmatis ATCC 607 […]; assay type: functional
[3] = system: Mycolicibacterium smegmatis; assay: Antimycobacterial activity against DDS sensitive Mycobacterium smegmatis ATCC 607 […]; assay type: functional
[4] = system: Mycobacterium tuberculosis; assay: Antitubercular activity against Mycobacterium tuberculosis H37Rv ATCC 27294 assessed as inhibition of [3H]-thymidine incorporation relative to control; assay type: functional
[5] = system: Mycobacterium tuberculosis; assay: Antitubercular activity against Mycobacterium tuberculosis H37Rv ATCC 27294 infected in bone marrow macrophages assessed as reduction in growth after 7 days; assay type: functional; conditions: H37Rv ATCC 27294, 168 h
[6] = Selectivity index, ratio of IC50 for African green monkey Vero cells to MIC for antitubercular activity against Mycobacterium tuberculosis H37Rv; assay type: toxicity; conditions: Vero cells, read-out: Selectivity Index
[7] = system: Mycobacterium tuberculosis; assay: Antitubercular activity against Mycobacterium tuberculosis H37Rv ATCC 27294 assessed as growth inhibition at 6.25 ug/ml by microplate alamar blue assay relative to control; assay type: functional
[8] = system: Mycobacterium leprae; assay: Anti-leprotic activity against Mycobacterium leprae infected in BALB/c weanling mouse assessed as bacteria killing at 150 mg/kg, ip administrated for 60 days and measured after 1 year by Spearman-Karber technique analysis relative to control; assay type: functional
[9] = system: Mycobacterium leprae; assay: Anti-leprotic activity against Mycobacterium leprae infected in BALB/c weanling mouse assessed as bacteria killing at 150 mg/kg, ip administrated for 60 days and measured after 1 year by most probable number technique analysis relative to control; assay type: functional
[10] = system: Mycobacterium leprae; assay: Anti-leprotic activity against Mycobacterium leprae infected in BALB/c weanling mouse assessed as bacteria killing at 150 mg/kg, ip administrated cotreated with 0.0001% dietary dapsone for 60 days and measured after 1 year by most probable number technique analysis relative to control; assay type: functional
[11] = system: Mycobacterium leprae; assay: Anti-leprotic activity against Mycobacterium leprae infected in BALB/c weanling mouse assessed as bacteria killing at 150 mg/kg, ip administrated cotreated with 0.0001% dietary dapsone for 60 days and measured after 1 year by Spearman-Karber technique analysis relative to control; assay type: functional
[12] = system: Mycobacterium tuberculosis; assay: Antimycobacterial activity against Mycobacterium tuberculosis H37Rv by BACTEC radiometric growth assay; assay type: functional
[13] = system: Mycobacterium leprae; assay: Antimicrobial activity against Mycobacterium leprae assessed as microbial growth at 1.5 ug/ml in presence of 0.05 ug/ml rifabutin measured at 4 weeks (reference value: 147 +/- 19.1%); assay type: functional
[14] = system: Mycolicibacterium aurum; assay: Antimicrobial activity against Mycobacterium aurum incubated for 24 hrs by broth microdilution assay; assay type: functional
[15] = system: Mycolicibacterium vaccae; assay: Antimicrobial activity against Mycobacterium vaccae incubated for 24 hrs by broth microdilution assay; assay type: functional
[16] = system: Mycolicibacterium smegmatis; assay: Antimicrobial activity against Mycobacterium smegmatis incubated for 24 hrs by broth microdilution assay; assay type: functional
[17] = system: Mycobacterium leprae; assay: Antimicrobial activity against Mycobacterium leprae assessed as microbial growth at 1.5 ug/ml in presence of 0.1 ug/ml rifabutin measured at 4 weeks (reference value: 147 +/- 19.1%); assay type: functional
[18] = system: Mycobacterium leprae; assay: Antimicrobial activity against Mycobacterium leprae assessed as fractional inhibitory concentration index at 1.5 ug/ml in presence of 0.025 ug/ml KRM-1648 measured at 4 weeks; assay type: functional
[19] = system: Mycobacterium leprae; assay: Antimicrobial activity against Mycobacterium leprae assessed as microbial growth at 1.5 ug/ml in presence of 0.025 ug/ml KRM-1648 measured at 4 weeks (reference value: 147 +/- 19.1%); assay type: functional
[20] = system: Mycobacterium leprae; assay: Antimicrobial activity against Mycobacterium leprae assessed as microbial growth at 1.5 ug/ml in presence of 0.0125 ug/ml KRM-1648 measured at 4 weeks (reference value: 147 +/- 19.1%); assay type: functional
[21] = system: Mycobacterium leprae; assay: Antimicrobial activity against Mycobacterium leprae assessed as fractional inhibitory concentration index at 1.5 ug/ml in presence of 0.2 ug/ml rifampin measured at 4 weeks; assay type: functional
[22] = system: Mycolicibacterium fortuitum; assay: Antimicrobial activity against Mycobacterium fortuitum incubated for 24 hrs by broth microdilution assay; assay type: functional
[23] = system: Mycobacterium leprae; assay: Antimicrobial activity against Mycobacterium leprae assessed as microbial growth at 1.5 ug/ml in presence of 0.1 ug/ml rifampin measured at 4 weeks (reference value: 147 +/- 19.1%); assay type: functional
[24] = system: Mycobacterium leprae; assay: Antimicrobial activity against Mycobacterium leprae assessed as fractional inhibitory concentration index at 1.5 ug/ml in presence of 0.1 ug/ml rifabutin measured at 4 weeks; assay type: functional
[25] = system: Mycobacterium leprae; assay: Antimicrobial activity against Mycobacterium leprae assessed as microbial growth at 1.5 ug/ml in presence of 0.2 ug/ml rifampin measured at 4 weeks (reference value: 147 +/- 19.1%); assay type: functional
[26] = system: Mycobacterium leprae; assay: Antimicrobial activity against Mycobacterium leprae assessed as fractional inhibitory concentration index at 0.375 ug/ml in presence of 0.0125 ug/ml KRM-1648 measured at 4 weeks; assay type: functional
[27] = system: Mycobacterium leprae; assay: Antimicrobial activity against Mycobacterium leprae assessed as microbial growth at 0.375 ug/ml in presence of 0.0125 ug/ml KRM-1648 measured at 4 weeks (reference value: 147 +/- 19.1%); assay type: functional
[28] = system: Mycobacterium leprae; assay: Antimicrobial activity against Mycobacterium leprae assessed as microbial growth at 0.375 ug/ml in presence of 0.05 ug/ml rifabutin measured at 4 weeks (reference value: 147 +/- 19.1%); assay type: functional
[29] = system: Mycobacterium leprae; assay: Antimicrobial activity against Mycobacterium leprae assessed as microbial growth at 0.75 ug/ml in presence of 0.2 ug/ml rifampin measured at 4 weeks (reference value: 147 +/- 19.1%); assay type: functional
[30] = system: Mycobacterium leprae; assay: Antimicrobial activity against Mycobacterium leprae assessed as fractional inhibitory concentration index at 0.375 ug/ml in presence of 0.05 ug/ml rifabutin measured at 4 weeks; assay type: functional
[31] = system: Mycobacterium leprae; assay: Antimicrobial activity against Mycobacterium leprae assessed as microbial growth at 0.375 ug/ml in presence of 0.025 ug/ml rifabutin measured at 4 weeks (reference value: 147 +/- 19.1%); assay type: functional
[32] = system: Mycobacterium leprae; assay: Antimicrobial activity against Mycobacterium leprae assessed as microbial growth at 0.75 ug/ml in presence of 0.1 ug/ml rifampin measured at 4 weeks (reference value: 147 +/- 19.1%); assay type: functional
[33] = system: Mycobacterium leprae; assay: Antimicrobial activity against Mycobacterium leprae assessed as fractional inhibitory concentration index at 0.75 ug/ml in presence of 0.2 ug/ml rifampin measured at 4 weeks; assay type: functional
[34] = system: Mycobacterium leprae; assay: Antimicrobial activity against Mycobacterium leprae assessed as microbial growth at 0.375 ug/ml in presence of 0.0062 ug/ml KRM-1648 measured at 4 weeks (reference value: 147 +/- 19.1%); assay type: functional
[35] = system: Mycobacterium leprae; assay: Antimicrobial activity against Mycobacterium leprae assessed as fractional inhibitory concentration index at 0.1875 ug/ml in presence of 0.05 ug/ml rifabutin measured at 4 weeks; assay type: functional
[36] = system: Mycobacterium leprae; assay: Antimicrobial activity against Mycobacterium leprae assessed as microbial growth at 0.1875 ug/ml in presence of 0.025 ug/ml rifabutin measured at 4 weeks (reference value: 147 +/- 19.1%); assay type: functional
[37] = system: Mycobacterium leprae; assay: Antimicrobial activity against Mycobacterium leprae assessed as microbial growth at 0.1875 ug/ml in presence of 0.0125 ug/ml KRM-1648 measured at 4 weeks (reference value: 147 +/- 19.1%); assay type: functional
[38] = system: Mycobacterium leprae; assay: Antimicrobial activity against Mycobacterium leprae assessed as fractional inhibitory concentration index at 0.1875 ug/ml in presence of 0.0125 ug/ml KRM-1648 measured at 4 weeks; assay type: functional
[39] = system: Mycobacterium leprae; assay: Antimicrobial activity against Mycobacterium leprae assessed as microbial growth at 0.375 ug/ml in presence of 0.1 ug/ml rifampin measured at 4 weeks (reference value: 147 +/- 19.1%); assay type: functional
[40] = system: Mycobacterium leprae; assay: Antimicrobial activity against Mycobacterium leprae assessed as fractional inhibitory concentration index at 0.375 ug/ml in presence of 0.2 ug/ml rifampin measured at 4 weeks; assay type: functional
[41] = system: Mycobacterium leprae; assay: Antimicrobial activity against Mycobacterium leprae assessed as microbial growth at 0.1875 ug/ml in presence of 0.0062 ug/ml KRM-1648 measured at 4 weeks (reference value: 147 +/- 19.1%); assay type: functional
[42] = system: Mycobacterium leprae; assay: Antimicrobial activity against Mycobacterium leprae assessed as microbial growth at 0.1875 ug/ml in presence of 0.05 ug/ml rifabutin measured at 4 weeks (reference value: 147 +/- 19.1%); assay type: functional
[43] = system: Mycobacterium leprae; assay: Antimicrobial activity against Mycobacterium leprae assessed as microbial growth at 0.375 ug/ml in presence of 0.2 ug/ml rifampin measured at 4 weeks (reference value: 147 +/- 19.1%); assay type: functional

Nc1ccc(S(=O)(=O)c2cccc(N)c2)cc1
Time [1]: 133 days
MIC [2]: 1300 µg/mL (≈ 5240 µM)
MIC [3]: 24.2 µg/mL (≈ 97.5 µM)

Clc1nc(-c2ccco2)c2ncn(Cc3ccccc3)c2n1
inhibition (INH) [4]: 27%
EC99 [5]: 8 µg/mL
selectivity ratio [6]: 10.6
inhibition at 6.25 µg/mL [7]: > 90%

CN[C@@H]1[C@H](O[C@H]2[C@H](O[C@H]3[C@H](O)[C@@H](O)[C@H](N=C(N)N)[C@@H](O)[C@@H]3N=C(N)N)O[C@@H](C)[C@]2(O)C=O)O[C@@H](CO)[C@H](O)[C@H]1O [STREPTOMYCIN]
Activity [8]: 97%
Activity [9]: 97.2%
Activity [10]: 95.7%
Activity [11]: 95%
MIC [12]: 2 µg/mL (≈ 3.44 µM)

O=C(O)c1cn(C2CC2)c2cc(N3CCNCC3)c(F)cc2c1=O [CIPROFLOXACIN]
Activity [13]: 21%
MIC [14]: < 0.05 µg/mL
MIC [15]: 0.4 µg/mL (≈ 1.21 µM)
MIC [16]: 0.8 µg/mL (≈ 2.41 µM)
Activity [17]: 0%
fractional inhibitory concentration index (FICI) [18]: 1
Activity [19]: 0%
Activity [20]: 19%
fractional inhibitory concentration index (FICI) [21]: 1
MIC [22]: 0.05 µg/mL (≈ 0.151 µM)
Activity [23]: 28%
fractional inhibitory concentration index (FICI) [24]: 1
Activity [25]: 0%

CC1COc2c(N3CCN(C)CC3)c(F)cc3c(=O)c(C(=O)O)cn1c23 (stereo not drawn) [OFLOXACIN]
fractional inhibitory concentration index (FICI) [26]: 0.5
Activity [27]: 0%
Activity [28]: 0%
Activity [29]: 0%
fractional inhibitory concentration index (FICI) [30]: 0.5
Activity [31]: 121%
Activity [32]: 72%
fractional inhibitory concentration index (FICI) [33]: 1
Activity [34]: 124%

C[C@H]1COc2c(N3CCN(C)CC3)c(F)cc3c(=O)c(C(=O)O)cn1c23.C[C@H]1COc2c(N3CCN(C)CC3)c(F)cc3c(=O)c(C(=O)O)cn1c23.O [LEVOFLOXACIN]
fractional inhibitory concentration index (FICI) [35]: 0.5
Activity [36]: 133%
Activity [37]: 0%
fractional inhibitory concentration index (FICI) [38]: 0.5
Activity [39]: 87%
fractional inhibitory concentration index (FICI) [40]: 1
Activity [41]: 115%
Activity [42]: 0%
Activity [43]: 0%
